Data on 34 compounds can be found in patent publication US20100004459A1, “2-PHENYLNICOTINIC ACID DERIVATIVE” (NIPPON ZOKI PHARMACEUTICAL CO., LTD., priority 2006, published 2010).

One data set has as its target T1, xanthine oxidase (Bos taurus, UniProt P80457).
T1 construct: derived from milk; manufactured by Sigma; purchased Sigma; host or cells: milk (natural source)
In words: Test for xanthine oxidase inhibitory activity. It is filed as biochemical. The following applies: xanthine oxidase derived from milk (Sigma); substrate xanthine; uric acid production at OD 292 nm, 37° C. The procedure: Evaluation of inhibitory activity of the present invention to xanthine oxidase was conducted using xanthine as a substrate by measuring the amount of uric acid produced by xanthine oxidase which is an oxidizing enzyme therefor. Thus, xanthine oxidase (0.01 unit/L, 20 μL/well; derived from milk; manufactured by Sigma), diethylenetriamine pentaacetate (0.01 mol/L, 20 μL/well), phosphate buffer (20 μL/well), distilled water (100 μL/well) and a diluted solution (20 μL/well) of a test substance were mixed in a 96-well quartz microplate. After preincubating for 5 minutes in a microplate spectrophotometer warmed at 37° C., xanthine (1 mmol/L, 20 μL/well) was added. The changes with elapse of time in OD 292 nm based on the production of uric acid was measured using a microplate spectrophotometer warmed at 37° C. whereby the initial reaction velocity was measured. Xanthine oxidase inhibitory activity was calculated by the following formula and concentration of the test substance for 50% suppression (IC50 value) was calculated.
Inhibition Rate(%)={[(Initial Reaction Velocity of the Reaction Control)-(Initial Reaction Velocity upon Addition of Test Substance)]/[Initial Reaction Velocity of the Reaction Control]}×100

T1 sequence (P80457 whole entry): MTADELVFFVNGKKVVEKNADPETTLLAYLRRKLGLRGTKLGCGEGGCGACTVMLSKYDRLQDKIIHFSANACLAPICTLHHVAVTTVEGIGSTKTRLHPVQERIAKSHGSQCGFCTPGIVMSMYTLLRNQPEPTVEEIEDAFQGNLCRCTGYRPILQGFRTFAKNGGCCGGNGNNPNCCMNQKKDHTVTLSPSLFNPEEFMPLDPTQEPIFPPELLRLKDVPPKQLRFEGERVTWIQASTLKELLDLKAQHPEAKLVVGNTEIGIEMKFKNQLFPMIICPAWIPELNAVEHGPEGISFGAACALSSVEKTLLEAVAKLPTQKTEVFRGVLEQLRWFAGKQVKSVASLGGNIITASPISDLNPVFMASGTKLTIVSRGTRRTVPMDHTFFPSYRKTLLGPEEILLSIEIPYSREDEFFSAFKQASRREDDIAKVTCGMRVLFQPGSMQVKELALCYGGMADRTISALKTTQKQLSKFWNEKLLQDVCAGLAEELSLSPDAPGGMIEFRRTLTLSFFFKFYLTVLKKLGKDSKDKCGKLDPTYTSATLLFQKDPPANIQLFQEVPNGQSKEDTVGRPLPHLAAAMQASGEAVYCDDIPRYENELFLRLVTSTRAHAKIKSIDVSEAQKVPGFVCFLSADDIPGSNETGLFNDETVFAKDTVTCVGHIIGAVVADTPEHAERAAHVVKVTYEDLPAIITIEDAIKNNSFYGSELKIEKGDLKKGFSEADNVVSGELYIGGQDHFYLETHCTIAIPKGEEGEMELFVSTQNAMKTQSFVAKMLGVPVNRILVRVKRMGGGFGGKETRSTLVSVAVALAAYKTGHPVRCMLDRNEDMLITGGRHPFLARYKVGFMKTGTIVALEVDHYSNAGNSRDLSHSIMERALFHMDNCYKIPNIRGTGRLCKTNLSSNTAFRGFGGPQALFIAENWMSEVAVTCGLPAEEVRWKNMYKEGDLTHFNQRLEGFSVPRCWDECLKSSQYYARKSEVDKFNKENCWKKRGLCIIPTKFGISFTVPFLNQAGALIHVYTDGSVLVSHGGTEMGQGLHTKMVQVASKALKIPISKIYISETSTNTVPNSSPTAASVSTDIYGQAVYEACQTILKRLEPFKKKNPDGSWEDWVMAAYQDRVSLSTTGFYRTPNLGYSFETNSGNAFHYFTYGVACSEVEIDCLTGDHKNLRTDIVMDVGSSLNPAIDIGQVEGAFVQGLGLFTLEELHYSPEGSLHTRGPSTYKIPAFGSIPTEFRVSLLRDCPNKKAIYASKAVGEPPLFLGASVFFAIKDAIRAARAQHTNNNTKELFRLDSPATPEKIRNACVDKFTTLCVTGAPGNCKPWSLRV

For orientation: melting point means the temperature, or range, at which the solid turns liquid. Broadly, the IC50 is the concentration needed to halve the response being measured. High values mean weaker potency in that assay, low ones greater potency in that assay. With `CC(C)(CCc1ccccc1)COc1ccc(-c2ncccc2C(=O)O)cc1C#N` [Example 81, 2-[3-Cyano-4-(2,2-dimethyl-4-phenylbutoxy)phenyl]nicotinic acid], the melting point fell in the range of 172 to 173 °C. Besides, the IC50 against xanthine oxidase came out at 16 nM.

In turn, `COc1ccc(CCCOc2ccc(-c3ncccc3C(=O)O)cc2C#N)cc1` [Example 120, 2-{3-Cyano-4-[3-(4-methoxyphenyl)propoxy]phenyl}nicotinic acid] gave an IC50 against xanthine oxidase of 35 nM.

`CCCCCCOc1ccc(-c2ncccc2C(=O)O)cc1C#N` [Example 49, 2-(3-Cyano-4-hexyloxyphenyl)nicotinic acid] had a melting point of 187 to 188 °C. This compound had an IC50 against xanthine oxidase of 63 nM. At xanthine oxidase, `N#Cc1cc(-c2ncccc2C(=O)O)ccc1OCCCc1ccccc1C(F)(F)F` [Example 118, 2-{3-Cyano-4-[3-(2-trifluoromethylphenyl)propoxy]phenyl}nicotinic acid] had a 50% inhibitory concentration (IC50) of 12 nM.

On xanthine oxidase, `COc1ccc(CC(C)(C)COc2ccc(-c3ncccc3C(=O)O)cc2C#N)cc1` [Example 104, 2-{3-Cyano-4-[2,2-dimethyl-3-(4-methoxyphenyl)propoxy]phenyl}nicotinic acid] returned an IC50 of 13 nM. Consider `N#Cc1cc(-c2ncccc2C(=O)O)ccc1OCCCCc1ccc(C(F)(F)F)cc1` [Example 63, 2-{3-Cyano-4-[4-(4-trifluoromethylphenyl)butoxy]phenyl}nicotinic acid], for which the melting point was in the range of 165 to 166 °C. The compound also displayed an IC50 at xanthine oxidase of 97 nM. Consider `COc1ccc(-c2ncccc2C(=O)O)cc1C#N` [Example 43, 2-(3-Cyano-4-methoxyphenyl)nicotinic acid], for which the melting point was 254 to 255 °C. `N#Cc1cc(-c2ncccc2C(=O)O)ccc1OCCCOc1ccc(OC(F)(F)F)cc1Cl` [Example 69, 2-{4-[3-(2-Chloro-4-trifluoromethoxyphenoxy)propoxy]-3-cyanophenyl}nicotinic acid]: the melting point fell in the range of 159 to 160 °C. The same compound came in with an IC50 against xanthine oxidase of 58 nM. Compound `CC(C)(C)c1cc(CCCOc2ccc(-c3ncccc3C(=O)O)cc2C#N)cc(C(C)(C)C)c1O` [Example 88] came in with an IC50 on xanthine oxidase of 47 nM. The same measure, in the same setting: then `CC(C)(COc1ccc(-c2ncccc2C(=O)O)cc1C#N)Cc1ccccc1C(F)(F)F` [Example 132, 2-{3-Cyano-4-[2,2-dimethyl-3-(2-trifluoromethylphenyl)propoxy]phenyl}nicotinic acid], with 15 nM; and `Cc1ccc(C)c(CCOc2ccc(-c3ncccc3C(=O)O)cc2C#N)c1` [Example 130, 2-[3-Cyano-4-(2,5-dimethylphenethyloxy)phenyl]nicotinic acid], with 72 nM. Compound `CC(C)(COc1ccc(-c2ncccc2C(=O)O)cc1C#N)Cc1ccccc1` [Example 80, 2-[3-Cyano-4-(2,2-dimethyl-3-phenylpropoxy)phenyl]nicotinic acid] had a melting point of 196 to 197 °C. The compound also displayed an IC50 against xanthine oxidase of 38 nM. At xanthine oxidase, `N#Cc1cc(-c2ncccc2C(=O)O)ccc1N1CCCCCC1` [Example 138, 2-(4-Azepan-1-yl-3-cyanophenyl)nicotinic acid] came in with an IC50 of 34 nM.

For `N#Cc1cc(-c2ncccc2C(=O)O)ccc1OCc1ccc(C(F)(F)F)cc1` [Example 50, 2-[3-Cyano-4-(4-trifluoromethylbenzyloxy)phenyl]nicotinic acid], the melting point was 226 to 227 °C. On xanthine oxidase, this compound returned an IC50 of 83 nM. `CC(C)(COc1ccc(-c2ncccc2C(=O)O)cc1C#N)Cc1ccc(C(F)(F)F)cc1` [Example 106, 2-{3-Cyano-4-[2,2-dimethyl-3-(4-trifluoromethylphenyl)propoxy]phenyl}nicotinic acid] yielded an IC50 at xanthine oxidase of 25 nM. Turning to `COc1ccc(CCOc2ccc(-c3ncccc3C(=O)O)cc2C#N)cc1` [Example 53, 2-[3-Cyano-4-(4-methoxyphenethyloxy)phenyl]nicotinic acid], the melting point lay in the range of 183 to 184 °C. The compound further showed an IC50 on xanthine oxidase of 58 nM. `CC(C)COc1ccc(-c2ncccc2C(=O)O)cc1C#N` [Example 44, 2-(3-Cyano-4-isobutoxyphenyl)nicotinic acid] displayed a melting point of 178 to 179 °C. Besides, the IC50 on xanthine oxidase came to 91 nM. `N#Cc1cc(-c2ncccc2C(=O)O)ccc1OCCCCc1ccccc1F` [Example 64, 2-{3-Cyano-4-[4-(2-fluorophenyl)butoxy]phenyl}nicotinic acid] had a melting point of 151 to 152 °C. The compound further showed an IC50 on xanthine oxidase of 33 nM.

Turning to `COc1ccc(CCCCOc2ccc(-c3ncccc3C(=O)O)cc2C#N)cc1` [Example 134, 2-{3-Cyano-4-[4-(4-methoxyphenyl)butoxy]phenyl}nicotinic acid], the IC50 against xanthine oxidase stood at 18 nM. Turning to `N#Cc1cc(-c2ncccc2C(=O)O)ccc1OCCCc1ccccc1F` [Example 60, 2-{3-Cyano-4-[3-(2-fluorophenyl)propoxy]phenyl}nicotinic acid], the melting point was 173 to 174 °C. The IC50 at xanthine oxidase was 49 nM.

Compound `N#Cc1cc(-c2ncccc2C(=O)O)ccc1OCCCOc1ccc(Oc2ccccc2)cc1` [Example 71, 2-{3-Cyano-4-[3-(4-phenoxyphenoxy)propoxy]phenyl}nicotinic acid] yielded a melting point of 149 to 150 °C. Moreover, on xanthine oxidase, the midpoint of inhibition, the IC50, lay at 90 nM. Take `N#Cc1cc(-c2ncccc2C(=O)O)ccc1OCC1CC1` [Example 45, 2-(3-Cyano-4-cyclopropylmethoxyphenyl)nicotinic acid]: the melting point fell in the range of 203 to 204 °C. `N#Cc1cc(-c2ncccc2C(=O)O)ccc1OCCCc1ccccc1` [Example 116, 2-[3-Cyano-4-(3-phenylpropoxy)phenyl]nicotinic acid] yielded an IC50 against xanthine oxidase of 52 nM. `COc1ccccc1CC(C)(C)COc1ccc(-c2ncccc2C(=O)O)cc1C#N` [Example 112, 2-{3-Cyano-4-[2,2-dimethyl-3-(2-methoxyphenyl)propoxy]phenyl}nicotinic acid]: on xanthine oxidase, 28 nM corresponded to half-maximal inhibition (IC50).

Regarding `CS(=O)(=O)Oc1ccc(CCOc2ccc(-c3ncccc3C(=O)O)cc2C#N)cc1` [Example 86, 2-{3-Cyano-4-[2-(4-methanesulfonyloxyphenyl)ethoxy]phenyl}nicotinic acid], the half-inhibitory concentration (IC50) against xanthine oxidase stood at 99 nM. As to `N#Cc1cc(-c2ncccc2C(=O)O)ccc1OCC1CCC1` [Example 46, 2-(3-Cyano-4-cyclobutylmethoxyphenyl)nicotinic acid], the melting point is 204 to 205 °C. Also, 83 nM corresponded to half-maximal inhibition at xanthine oxidase (IC50). Consider `CC(C)(C)c1cc(CCCCOc2ccc(-c3ncccc3C(=O)O)cc2C#N)cc(C(C)(C)C)c1O` [Example 90, 2-{3-Cyano-4-[4-(3,5-di-tert-butyl-4-hydroxyphenyl)butoxy]phenyl}nicotinic acid], for which, at xanthine oxidase, 37 nM corresponded to half-maximal inhibition (IC50). As for `CCCCC(C)(C)COc1ccc(-c2ncccc2C(=O)O)cc1C#N` [Example 73, 2-[3-Cyano-4-(2,2-dimethylhexyloxy)phenyl]nicotinic acid], the melting point is 155 to 156 °C. Moreover, the midpoint of inhibition on xanthine oxidase, the IC50, lay at 21 nM. Compound `N#Cc1cc(-c2ncccc2C(=O)O)ccc1OCCCCc1ccccc1C(F)(F)F` [Example 126, 2-{3-Cyano-4-[4-(2-trifluoromethylphenyl)butoxy]phenyl}nicotinic acid] showed a half-inhibitory concentration (IC50) against xanthine oxidase of 26 nM.

Compound `N#Cc1cc(-c2ncccc2C(=O)O)ccc1OCCC1CCCCC1` [Example 48, 2-[3-Cyano-4-(2-cyclohexylethoxy)phenyl]nicotinic acid] yielded a melting point of 171 to 172 °C. On xanthine oxidase, this compound yielded an IC50 of 38 nM.

In turn, `CC(C)(C)COc1ccc(-c2ncc(F)cc2C(=O)O)cc1C#N` [Example 140, 2-[3-Cyano-4-(2,2-dimethylpropoxy)phenyl]-5-fluoronicotinic acid] displayed an IC50 on xanthine oxidase of 40 nM. In turn, `N#Cc1cc(-c2ncccc2C(=O)O)ccc1OCCCc1ccc(F)cc1` [Example 61, 2-{3-Cyano-4-[3-(4-fluorophenyl)propoxy]phenyl}nicotinic acid] came in with a melting point of 177 to 178 °C. Also, the IC50 at xanthine oxidase was determined as 56 nM. For `CCC1(COc2ccc(-c3ncccc3C(=O)O)cc2C#N)CCCC1` [Example 76, 2-[3-Cyano-4-(1-ethylcyclopentylmethoxy)phenyl]nicotinic acid], in that order: 196 to 197 °C and 17 nM. As to `COc1ccc(C(C)(C)COc2ccc(-c3ncccc3C(=O)O)cc2C#N)cc1` [Example 122, 2-{3-Cyano-4-[2-methyl-2-(4-methoxyphenyl)propoxy]phenyl}nicotinic acid], inhibition on xanthine oxidase was half-maximal at 91 nM (IC50).
